Data set [1] deals with human HT29 colon cancer cells. Put plainly: CellTiter-Blue fluorescence cell viability assay. As to conditions: for IC50: read-out: IC50 value, cell viability, from dose-response curves.
Method: (§10) Colon cancer HT29 cells were treated with either FOLFOX alone (green triangles), 5-FU alone (orange triangles), oxaliplatin alone (black squares), Foxy-5 alone (red squares) or FOLFOX+Foxy-5 (blue circles). The cytotoxic effects of these different treatments were evaluated by CellTiter-Blue™ fluorescence cell viability assay. […] The data are normalized and shown as means±SEM.
The subject of data set [2] is colon cancer cells. As to conditions: in vitro; cited from earlier work.
For data set [3], the system named is human HT29 colon cancer cells.
Method: as §10
For data set [4], the system named is colon cancer xenograph tissue. Put plainly: Colon cancer xenograft tissue (cell line not stated), IHC of COX-2 and 15-PGDH. The format is in vivo, nude mice. As to conditions: Foxy-5 2 μg/g I.P., vs vehicle. The source says:
The IHC stainings were scored exactly as described in detail for the IHC staining in FIG. 1.
Representative images from vehicle- and Foxy-5-treated animals are presented. From each such slide 6 boxes were put on top of the stained tissue and for each of them the Cox-2 staining was scored as a percentage of stained cells multiplied by the staining intensity as described in detail for FIG. 2.
Representative images from vehicle- and Foxy-5-treated animals are presented. From each such slide 6 boxes were put on top of the stained tissue and for each of them the 15-PGDH staining was scored as a percentage of stained cells multiplied by the staining intensity as described in detail for FIG. 2.
On day 0: Subcutaneous injections of HT29 or Caco-2 colon cancer cells in nude mice were done. […]
(§1) On days 9-23 tumour growth and animal weight was monitored—then +8 I.P. injections every 2nd day of either vehicle alone (gr 1) or Foxy-5 (2 μg/g; gr 2).
(§2) On day 24 the two types of tumours (Caco-2 and HT29 derived) (divided in two parts of which one was fixed and the other frozen at −80° C.) were analyzed by IHC for their protein expression of COX-2, 15PGDH, β-catenin, Ascl2, ALDH and Dckl1 and for their mRNA content of ALDH and Dckl1 (ALDH is a general stem cell marker and Dck1 is a specific marker for colon CSCs).

Data set [5] deals with colon cancer cells. Nature of the data set: In vitro treatment of colon cancer cells (Mehdawi et al., 2016). It counts as cell-based. As to conditions: in vitro conditions, inventors' own observation.
For a further data set, the system named is HT29 colon cancer cells. Nature of the data set: HT29 colon cancer xenograft in nude mice, tumours analysed by IHC and mRNA. The format is in vivo. To be noted: HT29-derived tumours.
Source text: (§3) Representative photos from saline- and Foxy-5-treated animals are presented. From each such slide, 4 boxes were put on top of the stained tissue and for each of them the ALDH staining was scored as a percentage of stained cells multiplied by the staining intensity. The following score was used for percentage stained cells; 0 for positive stained cells <5%, 1 for positive cells 5-25%, 2 for positive cells 26-50%, 3 for positive cells 51-75%, 4 for positive cells >75%.
(§4) For staining intensities, the stained areas were scored as; 1 for weak staining, 2 for medium staining and 3 for strong staining. For each box a final score was obtained by multiplying the score for percentage of positively stained cells with the score for staining intensity. Finally, a mean value was obtained from the 4 boxes for each tumour. The same scoring protocol was then used for all IHC analyses presented in the present study.
(§5) Representative images from vehicle (saline) and Foxy-5-treated animals are presented. From each such slide, 6 boxes were randomly put on top of the stained tissue and for each of them the ALDH staining was scored as a percentage of stained cells multiplied by the staining intensity. The following score was used for percentage stained cells; 0 for positive stained cells <5%, 1 for positive cells 5-25%, 2 for positive cells 26-50%, 3 for positive cells 51-75%, 4 for positive cells >75%.
(§6) For staining intensities, the stained areas were scored as; 1 for weak staining, 2 for medium staining and 3 for strong staining. For each box a final score was obtained by multiplying the score for percentage of positively stained cells with the score for staining intensity. Finally, a mean value was obtained from the 6 boxes for each tumour sample. The same scoring protocol was then used for all IHC analyses presented in the present study.
(§7) Tumours from two different human colon cancer cell types HT29 and Caco-2 cells were examined by immunohistochemistry (IHC) and mRNA (see FIG. 1).
(§8) On day 0: Subcutaneous injections of HT29 or Caco-2 colon cancer cells in nude mice were done.
(§9) On day 7 after tumours have been established in the mice, intraperitoneal (I.P) injections of vehicle (saline) alone (gr 1) or Foxy-5 (2 μg/g; gr 2) were done.
as §1, §2

Data set [6] deals with Caco-2 colon cancer cells. Nature of the data set: Caco-2 colon cancer xenograft in nude mice, tumours analysed by IHC and mRNA. The format is in vivo. To be noted: Caco-2-derived tumours.
Source text: as §3, §4, §5, §6, §7, §8, §9, §1, §2

The mark [7] stands for this setting: Foxy-5 2 μg/g I.P. every 2nd day, day 7-23, IHC and mRNA, day 24, vs vehicle.
Where [8] appears, read: Foxy-5 2 μg/g I.P., vs vehicle-treated mice.

The term IC50 denotes the concentration that gives 50% inhibition.

Read-outs that look alike come from different tables or passages of the source.

Take `O=c1[nH]cc(F)c(=O)[nH]1` [5-FU, 5-fluorouracil]: in data set [1], the concentration for half-maximal inhibition (IC50) came to 6.8 µM.

For `Nc1nc2c(c(=O)[nH]1)N(C=O)C(CNc1ccc(C(=O)N[C@@H](CCC(=O)O)C(=O)O)cc1)CN2` (stereo partly drawn) [folinic acid], in data set [1] (monotherapy), the “cytotoxic effect on cell viability” value is given as “no cytotoxic effect”.

For `O=C1[O][Pt]2([NH][C@@H]3CCCC[C@H]3[NH]2)[O]C1=O` [oxaliplatin], the IC50 in data set [1] came to 3.4 µM.

In the case of MDGCEL [Foxy-5], in the data set on colon cancer cells [2], the “expression of the PGE2 and lipoxin degrading enzyme 15-PGDH” value was “up-regulate”; the “expression of the PGE2 producing enzyme COX-2” value is “decrease”; the β-catenin signalling result is on record as “reduction”. Besides, in data set [3], the “cytotoxic effect on cell viability” value is recorded as “no cytotoxic effect”. In data set [4], the “PGE2 degrading enzyme 15-PGDH expression” value was “increase” and the “expression of the PGE2 generating enzyme COX-2” value was “decrease”. Moreover, in data set [1] (combined with FOLFOX), the “effect on the inhibitory effect of FOLFOX on cell viability” value is on record as “do not enhance or reduce”. In addition, in data set [1] (from dose-response curves), the “IC50 value, cell viability” value is given as “no IC50 value could be determined”. The “number of CSCs” value in the data set on colon cancer cells [5] was “not been able to detect any reduction”. Besides, in the data set with HT29 colon cancer cells (IHC, Foxy-5 2 μg/g I.P.), the “active β-catenin nuclei expression” value is “Decreased” and the “β-catenin downstream target Ascl2 protein expression” value is given as “reductions”. Also, the “expression of the two stem cell biomarkers (ALDH and Dck1)” value in the data set with HT29 colon cancer cells (setting [7]) is listed as “significantly reduce”. In addition, in the data set with HT29 colon cancer cells (setting [8]), the tumour volume entry is given as “reductions”. Also, in data set [6] (IHC, Foxy-5 2 μg/g I.P.), the “active β-catenin nuclei expression” value is “Decreased” and the “β-catenin downstream target Ascl2 protein expression” value is on record as “reductions”. Moreover, the “expression of the two stem cell biomarkers (ALDH and Dck1)” value in data set [6] (setting [7]) is given as “significantly reduce”. Moreover, the tumour volume result in data set [6] (setting [8]) was “reductions”.

B1: WNT5A protein: full length WNT5A protein according to SEQ ID NO: 1, a non-canonical Wnt ligand (protein, listed as Homo sapiens)
chain: MKKSIGILSPGVALGMAGSAMSSKFFLVALAIFFSFAQVVIEANSWWSLGMNNPVQMSEVYIIGAQPLCSQLAGLSQGQKKLCHLYQDHMQYIGEGAKTGIKECQYQFRHRRWNCSTVDNTSVFGRVMQIGSRETAFTYAVSAAGVVNAMSRACREGELSTCGCSRAARPKDLPRDWLWGGCGDNIDYGYRFAKEFVDARERERIHAKGSYESARILMNLHNNEAGRRTVYNLADVACKCHGVSGSCSLKTCWLQLADFRKVGDALKEKYDSAAAMRLNSRGKLVQVNSRFNSPTTQDLVYIDPSPDYCVRNESTGSLGTQGRLCNKTSEGMDGCELMCCGRGYDQFKTVQTERCHCKFHWCCYVKCKKCTEIVDQFVCK
Consider B1, for which, in the data set with colon cancer cells [2], the “expression of the PGE2 and lipoxin degrading enzyme 15-PGDH” value is “up-regulate”; the “expression of the PGE2 producing enzyme COX-2” value is listed as “decrease”; the β-catenin signalling entry is “reduction”. The “number of CSCs” value in the data set with colon cancer cells [5] is reported as “not been able to detect any reduction”.

Values taken from patent publication US20210008149A1, “WNT5A PEPTIDES IN REDUCTION OF CANCER STEM CELLS” (WNTRESEARCH AB, priority 2017, published 2021).
